In brackets after ≈: the same amount, converted by molar mass.
What was measured:
[1] = system: Mycobacterium tuberculosis; assay: Antitubercular activity against Mycobacterium tuberculosis H37Rv ATCC 27294 after 5 days by micro alamar blue assay; type: functional
[2] = system: Staphylococcus aureus; assay: Antibacterial activity against Staphylococcus aureus at 10 ug/disk after 24 hrs by agar plate disk diffusion method; type: functional; conditions: read-out: DIZ
[3] = system: Escherichia coli; assay: Antibacterial activity against Escherichia coli at 10 ug/disk after 24 hrs by agar plate disk diffusion method; type: functional; conditions: read-out: DIZ
[4] = system: Proteus vulgaris; assay: Antibacterial activity against Proteus vulgaris at 10 ug/disk after 24 hrs by agar plate disk diffusion method; type: functional; conditions: read-out: DIZ
[5] = system: Pseudomonas aeruginosa; assay: Antibacterial activity against Pseudomonas aeruginosa at 10 ug/disk after 24 hrs by agar plate disk diffusion method; type: functional; conditions: read-out: DIZ
[6] = system: Salmonella typhi; assay: Antibacterial activity against Salmonella typhi at 10 ug/disk after 24 hrs by agar plate disk diffusion method; type: functional, Salmonella enterica subsp. enterica serovar Typhi; conditions: Salmonella enterica, read-out: DIZ
[7] = system: Salmonella paratyphi; assay: Antibacterial activity against Salmonella paratyphi at 10 ug/disk after 24 hrs by agar plate disk diffusion method; type: functional, Salmonella enterica subsp. enterica serovar Paratyphi A; conditions: Salmonella enterica, read-out: DIZ
[8] = system: Staphylococcus aureus; assay: Antibacterial activity against Staphylococcus aureus after 24 hrs by agar dilution method; type: functional
[9] = system: Staphylococcus aureus; assay: Antibacterial activity against Staphylococcus aureus after 5 days by microdilution method; type: functional; conditions: 120 h
[10] = system: Escherichia coli; assay: Antibacterial activity against Escherichia coli after 24 hrs by agar dilution method; type: functional
[11] = system: Escherichia coli; assay: Antibacterial activity against Escherichia coli after 5 days by microdilution method; type: functional; conditions: 120 h
[12] = system: Proteus vulgaris; assay: Antibacterial activity against Proteus vulgaris after 24 hrs by agar dilution method; type: functional
[13] = system: Proteus vulgaris; assay: Antibacterial activity against Proteus vulgaris after 5 days by microdilution method; type: functional; conditions: 120 h
[14] = system: Pseudomonas aeruginosa; assay: Antibacterial activity against Pseudomonas aeruginosa after 24 hrs by agar dilution method; type: functional
[15] = system: Pseudomonas aeruginosa; assay: Antibacterial activity against Pseudomonas aeruginosa after 5 days by microdilution method; type: functional; conditions: 120 h
[16] = system: Salmonella typhi; assay: Antibacterial activity against Salmonella typhi after 24 hrs by agar dilution method; type: functional, Salmonella enterica subsp. enterica serovar Typhi; conditions: Salmonella enterica
[17] = system: Salmonella typhi; assay: Antibacterial activity against Salmonella typhi after 5 days by microdilution method; type: functional, Salmonella enterica subsp. enterica serovar Typhi; conditions: Salmonella enterica, 120 h
[18] = system: Salmonella paratyphi; assay: Antibacterial activity against Salmonella paratyphi after 24 hrs by agar dilution method; type: functional, Salmonella enterica subsp. enterica serovar Paratyphi A; conditions: Salmonella enterica
[19] = system: Salmonella paratyphi; assay: Antibacterial activity against Salmonella paratyphi after 5 days by microdilution method; type: functional, Salmonella enterica subsp. enterica serovar Paratyphi A; conditions: Salmonella enterica, 120 h

| SMILES | inhibition (INH) [1] | zone of inhibition at 10 µg/disc [2] | zone of inhibition at 10 µg/disc [3] | zone of inhibition at 10 µg/disc [4] | zone of inhibition at 10 µg/disc [5] | zone of inhibition at 10 µg/disc [6] | zone of inhibition at 10 µg/disc [7] | MIC [8] | MIC [9] | MIC [10] | MIC [11] | MIC [12] | MIC [13] | MIC [14] | MIC [15] | MIC [16] | MIC [17] | MIC [18] | MIC [19] |
| --- | --- | --- | --- | --- | --- | --- | --- | --- | --- | --- | --- | --- | --- | --- | --- | --- | --- | --- | --- |
| CO[C@H]1/C=C/O[C@@]2(C)Oc3c(C)c(O)c4c(O)c(c(/C=N/N5CCN(C)CC5)c(O)c4c3C2=O)NC(=O)/C(C)=C\C=C\[C@H](C)[C@H](O)[C@@H](C)[C@@H](O)[C@@H](C)[C@H](OC(C)=O)[C@@H]1C [RIFAMPIN] | 98% |  |  |  |  |  |  |  |  |  |  |  |  |  |  |  |  |  |  |
| CCOC(=O)c1cn(CC)c2nc(C)ccc2c1=O | 78% | 24 mm | 22 mm | 23 mm | 17 mm | 21 mm | 19 mm | 0.25 µg/mL (≈ 0.96 µM) | 0.25 µg/mL (≈ 0.96 µM) | 0.5 µg/mL (≈ 1.92 µM) | 0.5 µg/mL (≈ 1.92 µM) | 0.5 µg/mL (≈ 1.92 µM) | 0.5 µg/mL (≈ 1.92 µM) | 2 µg/mL (≈ 7.68 µM) | 2 µg/mL (≈ 7.68 µM) | 1 µg/mL (≈ 3.84 µM) | 1 µg/mL (≈ 3.84 µM) | 1 µg/mL (≈ 3.84 µM) | 1 µg/mL (≈ 3.84 µM) |
| CCn1cc(C(=O)N/N=c2\[nH]c3ccccc3[nH]c2=O)c(=O)c2ccc(C)nc21 | 91% | 21 mm | 22 mm | 20 mm | 17 mm | 14 mm | 15 mm | 1 µg/mL (≈ 2.56 µM) | 1 µg/mL (≈ 2.56 µM) | 2 µg/mL (≈ 5.12 µM) | 2 µg/mL (≈ 5.12 µM) | 2 µg/mL (≈ 5.12 µM) | 2 µg/mL (≈ 5.12 µM) | > 4 µg/mL | > 4 µg/mL | > 4 µg/mL | > 4 µg/mL | > 4 µg/mL | > 4 µg/mL |
| CCn1cc(C(=O)NNC(N)=S)c(=O)c2ccc(C)nc21 | 84% | 28 mm | 29 mm | 30 mm | 26 mm | 23 mm | 23 mm | 0.12 µg/mL (≈ 0.393 µM) | 0.12 µg/mL (≈ 0.393 µM) | 0.12 µg/mL (≈ 0.393 µM) | 0.12 µg/mL (≈ 0.393 µM) | 0.12 µg/mL (≈ 0.393 µM) | 0.12 µg/mL (≈ 0.393 µM) | 0.25 µg/mL (≈ 0.819 µM) | 0.25 µg/mL (≈ 0.819 µM) | 0.5 µg/mL (≈ 1.64 µM) | 0.5 µg/mL (≈ 1.64 µM) | 0.5 µg/mL (≈ 1.64 µM) | 0.5 µg/mL (≈ 1.64 µM) |
| CCn1cc(C(=O)NN)c(=O)c2ccc(C)nc21 | 80% | 28 mm | 39 mm | 34 mm | 39 mm | 28 mm | 20 mm | 0.12 µg/mL (≈ 0.487 µM) | 0.12 µg/mL (≈ 0.487 µM) | 0.06 µg/mL (≈ 0.244 µM) | 0.06 µg/mL (≈ 0.244 µM) | 0.06 µg/mL (≈ 0.244 µM) | 0.06 µg/mL (≈ 0.244 µM) | 0.25 µg/mL (≈ 1.02 µM) | 0.25 µg/mL (≈ 1.02 µM) | 0.5 µg/mL (≈ 2.03 µM) | 0.5 µg/mL (≈ 2.03 µM) | 0.5 µg/mL (≈ 2.03 µM) | 0.5 µg/mL (≈ 2.03 µM) |
| CCn1cc(-c2nn(-c3nc4ccccc4[nH]c3=O)c(=S)o2)c(=O)c2ccc(C)nc21 | 75% | 32 mm | 25 mm | 26 mm | 23 mm | 23 mm | 22 mm | 0.06 µg/mL (≈ 0.139 µM) | 0.06 µg/mL (≈ 0.139 µM) | 0.5 µg/mL (≈ 1.16 µM) | 0.5 µg/mL (≈ 1.16 µM) | 1 µg/mL (≈ 2.31 µM) | 1 µg/mL (≈ 2.31 µM) | 1 µg/mL (≈ 2.31 µM) | 1 µg/mL (≈ 2.31 µM) | 1 µg/mL (≈ 2.31 µM) | 1 µg/mL (≈ 2.31 µM) | 1 µg/mL (≈ 2.31 µM) | 1 µg/mL (≈ 2.31 µM) |
| CCn1cc(C(=O)O)c(=O)c2ccc(C)nc21 [NALIDIXIC ACID] | 63% | 27 mm | 26 mm | 25 mm | 22 mm | 25 mm | 24 mm | 0.12 µg/mL (≈ 0.517 µM) | 0.12 µg/mL (≈ 0.517 µM) | 0.25 µg/mL (≈ 1.08 µM) | 0.25 µg/mL (≈ 1.08 µM) | 0.25 µg/mL (≈ 1.08 µM) | 0.25 µg/mL (≈ 1.08 µM) | 1 µg/mL (≈ 4.31 µM) | 1 µg/mL (≈ 4.31 µM) | 1 µg/mL (≈ 4.31 µM) | 1 µg/mL (≈ 4.31 µM) | 1 µg/mL (≈ 4.31 µM) | 1 µg/mL (≈ 4.31 µM) |
| CCn1cc(C(=O)NNC(=S)/N=c2\[nH]c3ccccc3[nH]c2=O)c(=O)c2ccc(C)nc21 | 93% | 20 mm | 19 mm | 18 mm | 19 mm | 22 mm | 18 mm | 1 µg/mL (≈ 2.22 µM) | 1 µg/mL (≈ 2.22 µM) | 2 µg/mL (≈ 4.45 µM) | 2 µg/mL (≈ 4.45 µM) | 2 µg/mL (≈ 4.45 µM) | 2 µg/mL (≈ 4.45 µM) | > 4 µg/mL | > 4 µg/mL | 2 µg/mL (≈ 4.45 µM) | 2 µg/mL (≈ 4.45 µM) | 2 µg/mL (≈ 4.45 µM) | 2 µg/mL (≈ 4.45 µM) |
| O=C(O)c1cn(C2CC2)c2cc(N3CCNCC3)c(F)cc2c1=O [CIPROFLOXACIN] |  | 30 mm | 28 mm | 33 mm | 23 mm | 26 mm | 25 mm | 0.12 µg/mL (≈ 0.362 µM) | 0.12 µg/mL (≈ 0.362 µM) |  |  | 0.25 µg/mL (≈ 0.754 µM) | 0.25 µg/mL (≈ 0.754 µM) |  |  | 0.12 µg/mL (≈ 0.362 µM) | 0.12 µg/mL (≈ 0.362 µM) | 0.25 µg/mL (≈ 0.754 µM) | 0.25 µg/mL (≈ 0.754 µM) |
| NNC(=O)c1ccncc1 [ISONIAZID] | 100% |  |  |  |  |  |  |  |  |  |  |  |  |  |  |  |  |  |  |
| CC1(C)S[C@@H]2[C@H](NC(=O)[C@H](N)c3ccc(O)cc3)C(=O)N2[C@H]1C(=O)O [AMOXICILLIN] |  | 32 mm | 25 mm | 24 mm | 21 mm | 21 mm | 22 mm | 0.5 µg/mL (≈ 1.37 µM) | 0.5 µg/mL (≈ 1.37 µM) | 0.25 µg/mL (≈ 0.684 µM) | 0.25 µg/mL (≈ 0.684 µM) | 1 µg/mL (≈ 2.74 µM) | 1 µg/mL (≈ 2.74 µM) | 2 µg/mL (≈ 5.47 µM) | 2 µg/mL (≈ 5.47 µM) | 0.5 µg/mL (≈ 1.37 µM) | 0.5 µg/mL (≈ 1.37 µM) | 2 µg/mL (≈ 5.47 µM) | 2 µg/mL (≈ 5.47 µM) |
| CCn1cc(-c2n[nH]c(=S)n2-c2nc3ccccc3[nH]c2=O)c(=O)c2ccc(C)nc21 | 77% | 30 mm | 28 mm | 30 mm | 29 mm | 22 mm | 23 mm | 0.06 µg/mL (≈ 0.139 µM) | 0.06 µg/mL (≈ 0.139 µM) | 0.06 µg/mL (≈ 0.139 µM) | 0.06 µg/mL (≈ 0.139 µM) | 0.5 µg/mL (≈ 1.16 µM) | 0.5 µg/mL (≈ 1.16 µM) | 1 µg/mL (≈ 2.32 µM) | 1 µg/mL (≈ 2.32 µM) | 1 µg/mL (≈ 2.32 µM) | 1 µg/mL (≈ 2.32 µM) | 1 µg/mL (≈ 2.32 µM) | 1 µg/mL (≈ 2.32 µM) |
